Patent US20250176599A1, “FLAVOR COMPOSITION AND FOOD AND BEVERAGE” (TAKASAGO INTERNATIONAL CORPORATION, priority 2021, published 2025)

Columns and labels:
[1] = Sensory evaluation of aqueous solution IV containing 1,5-octadien-3-one 100 ppt: off-flavor intensity and masking component intensity
Procedure, shortened: (§1)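 Scores run 0–4 for two attributes: off-flavor intensity, judged against the unmasked spiked solution (4) and degradant-free water (0), and nootkatone's own perceptibility, judged absolutely. A panel of eight experienced tasters evaluated aqueous solutions of the degradation component containing added nootkatone.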

[2] = Sensory evaluation of aqueous solution VI containing 1,5-octadien-3-ol 10 ppb: off-flavor intensity and masking component intensity
Procedure, shortened: as §1

[3] = Overall conclusion of the sensory evaluation across aqueous solutions I to VI
Procedure, shortened: as §1

[4] = Sensory evaluation of aqueous solution III containing 1-octen-3-one 1 ppb: off-flavor intensity and masking component intensity
Procedure, shortened: as §1

[5] = Sensory evaluation of aqueous solution II containing (E)-2-octenal 10 ppb: off-flavor intensity and masking component intensity
Procedure, shortened: as §1

[6] = Sensory evaluation of aqueous solution V containing 1-octen-3-ol 10 ppb: off-flavor intensity and masking component intensity
Procedure, shortened: as §1

[7] = Sensory evaluation of aqueous solution I containing (E)-2-nonenal 1 ppb: off-flavor intensity and masking component intensity
Procedure, shortened: as §1

[8] = aqueous solution IV, 1 ppb added, average panel score
[9] = aqueous solution IV, 1 ppm added, average panel score
[10] = aqueous solution IV, 10 ppb added, average panel score
[11] = aqueous solution IV, 10 ppm added, average panel score
[12] = aqueous solution IV, 50 ppm added, average panel score
[13] = aqueous solution IV, 100 ppb added, average panel score
[14] = aqueous solution IV, 100 ppm added, average panel score
[15] = aqueous solution IV, 100 ppt added, average panel score
[16] = aqueous solution VI, 1 ppb added, average panel score
[17] = aqueous solution VI, 1 ppm added, average panel score
[18] = aqueous solution VI, 10 ppb added, average panel score
[19] = aqueous solution VI, 10 ppm added, average panel score
[20] = aqueous solution VI, 50 ppm added, average panel score
[21] = aqueous solution VI, 100 ppb added, average panel score
[22] = aqueous solution VI, 100 ppm added, average panel score
[23] = aqueous solution VI, 100 ppt added, average panel score
[24] = 1 ppb added, average panel score
[25] = 1 ppm added, average panel score
[26] = 10 ppb added, average panel score
[27] = 10 ppm added, average panel score
[28] = 50 ppm added, average panel score
[29] = 100 ppb added, average panel score
[30] = 100 ppm added, average panel score
[31] = 100 ppt added, average panel score

SMILES: CC1CCC(C(C)C)C(OCC(O)CO)C1 (stereo not shown) [3-menthoxypropan-1,2-diol]
- Masking Component Intensity [1, 8]: 0.0
- Off-Flavor Intensity [1, 8]: 3.8
- Masking Component Intensity [1, 9]: 1.0
- Off-Flavor Intensity [1, 9]: 3.3
- Masking Component Intensity [1, 10]: 0.1
- Off-Flavor Intensity [1, 10]: 3.5
- Masking Component Intensity [1, 11]: 1.5
- Off-Flavor Intensity [1, 11]: 2.9
- Masking Component Intensity [1, 12]: 2.4
- Off-Flavor Intensity [1, 12]: 2.5
- Masking Component Intensity [1, 13]: 0.9
- Off-Flavor Intensity [1, 13]: 3.5
- Masking Component Intensity [1, 14]: 3.0
- Off-Flavor Intensity [1, 14]: 2.1
- Masking Component Intensity [1, 15]: 0.0
- Off-Flavor Intensity [1, 15]: 3.9
- Masking Component Intensity [2, 16]: 0.1
- Off-Flavor Intensity [2, 16]: 3.0
- Masking Component Intensity [2, 17]: 0.8
- Off-Flavor Intensity [2, 17]: 2.6
- Masking Component Intensity [2, 18]: 0.4
- Off-Flavor Intensity [2, 18]: 3.0
- Masking Component Intensity [2, 19]: 2.0
- Off-Flavor Intensity [2, 19]: 2.3
- Masking Component Intensity [2, 20]: 2.9
- Off-Flavor Intensity [2, 20]: 1.9
- Masking Component Intensity [2, 21]: 0.4
- Off-Flavor Intensity [2, 21]: 3.0
- Masking Component Intensity [2, 22]: 3.5
- Off-Flavor Intensity [2, 22]: 1.3
- Masking Component Intensity [2, 23]: 0.0
- Off-Flavor Intensity [2, 23]: 3.0
- concentration that masks the off-flavor and does not affect the flavor of the food and/or beverage itself, lower limit [3]: ≥ 100 ppt
- concentration that masks the off-flavor and does not affect the flavor of the food and/or beverage itself, upper limit [3]: ≤ 100 ppm
- Masking Component Intensity [4, 24]: 0.5
- Off-Flavor Intensity [4, 24]: 3.3
- Masking Component Intensity [4, 25]: 1.5
- Off-Flavor Intensity [4, 25]: 2.5
- Masking Component Intensity [4, 26]: 0.6
- Off-Flavor Intensity [4, 26]: 2.9
- Masking Component Intensity [4, 27]: 2.1
- Off-Flavor Intensity [4, 27]: 2.3
- Masking Component Intensity [4, 28]: 3.0
- Off-Flavor Intensity [4, 28]: 1.9
- Masking Component Intensity [4, 29]: 1.1
- Off-Flavor Intensity [4, 29]: 2.8
- Masking Component Intensity [4, 30]: 3.8
- Off-Flavor Intensity [4, 30]: 1.6
- Masking Component Intensity [4, 31]: 0.1
- Off-Flavor Intensity [4, 31]: 3.3
- Masking Component Intensity [5, 24]: 0.4
- Off-Flavor Intensity [5, 24]: 3.0
- Masking Component Intensity [5, 25]: 1.4
- Off-Flavor Intensity [5, 25]: 2.3
- Masking Component Intensity [5, 26]: 0.5
- Off-Flavor Intensity [5, 26]: 3.0
- Masking Component Intensity [5, 27]: 2.0
- Off-Flavor Intensity [5, 27]: 1.8
- Masking Component Intensity [5, 28]: 3.1
- Off-Flavor Intensity [5, 28]: 1.5
- Masking Component Intensity [5, 29]: 1.0
- Off-Flavor Intensity [5, 29]: 2.8
- Masking Component Intensity [5, 30]: 4.0
- Off-Flavor Intensity [5, 30]: 1.1
- Masking Component Intensity [5, 31]: 0.4
- Off-Flavor Intensity [5, 31]: 3.1
- Masking Component Intensity [6, 24]: 0.3
- Off-Flavor Intensity [6, 24]: 3.1
- Masking Component Intensity [6, 25]: 1.4
- Off-Flavor Intensity [6, 25]: 2.6
- Masking Component Intensity [6, 26]: 0.6
- Off-Flavor Intensity [6, 26]: 2.6
- Masking Component Intensity [6, 27]: 2.1
- Off-Flavor Intensity [6, 27]: 2.0
- Masking Component Intensity [6, 28]: 2.0
- Off-Flavor Intensity [6, 28]: 1.6
- Masking Component Intensity [6, 29]: 1.0
- Off-Flavor Intensity [6, 29]: 2.5
- Masking Component Intensity [6, 30]: 3.8
- Off-Flavor Intensity [6, 30]: 1.4
- Masking Component Intensity [6, 31]: 0.3
- Off-Flavor Intensity [6, 31]: 3.3
- Masking Component Intensity [7, 24]: 0.3
- Off-Flavor Intensity [7, 24]: 3.4
- Masking Component Intensity [7, 25]: 1.1
- Off-Flavor Intensity [7, 25]: 2.9
- Masking Component Intensity [7, 26]: 0.6
- Off-Flavor Intensity [7, 26]: 3.1
- Masking Component Intensity [7, 27]: 1.9
- Off-Flavor Intensity [7, 27]: 2.6
- Masking Component Intensity [7, 28]: 2.5
- Off-Flavor Intensity [7, 28]: 1.9
- Masking Component Intensity [7, 29]: 0.8
- Off-Flavor Intensity [7, 29]: 3.1
- Masking Component Intensity [7, 30]: 3.3
- Off-Flavor Intensity [7, 30]: 1.8
- Masking Component Intensity [7, 31]: 0.3
- Off-Flavor Intensity [7, 31]: 3.4

SMILES: C=CC(C)(CCC=C(C)C)OC(=O)CCC (stereo not shown) [Linalyl Butyrate, linalyl butyrate]
- Off-Flavor Intensity ([1]; 1 ppb added, aqueous solution IV, 1,5-octadien-3-one 100 ppt, average score 0-4): 2.9 points
- Off-Flavor Intensity ([1]; 1 ppm added, aqueous solution IV, 1,5-octadien-3-one 100 ppt, average score 0-4): 0.9 points
- Off-Flavor Intensity ([1]; 5 ppm added, aqueous solution IV, 1,5-octadien-3-one 100 ppt, average score 0-4): 0.9 points
- Off-Flavor Intensity ([1]; 10 ppb added, aqueous solution IV, 1,5-octadien-3-one 100 ppt, average score 0-4): 2.6 points
- Off-Flavor Intensity ([1]; 10 ppt added, aqueous solution IV, 1,5-octadien-3-one 100 ppt, average score 0-4): 3.6 points
- Off-Flavor Intensity ([1]; 50 ppb added, aqueous solution IV, 1,5-octadien-3-one 100 ppt, average score 0-4): 2.1 points
- Off-Flavor Intensity ([1]; 100 ppb added, aqueous solution IV, 1,5-octadien-3-one 100 ppt, average score 0-4): 1.6 points
- Off-Flavor Intensity ([1]; 100 ppt added, aqueous solution IV, 1,5-octadien-3-one 100 ppt, average score 0-4): 3.0 points
- Off-Flavor Intensity ([1]; 500 ppb added, aqueous solution IV, 1,5-octadien-3-one 100 ppt, average score 0-4): 1.3 points
- Off-Flavor Intensity ([2]; 1 ppb added, aqueous solution VI, 1,5-octadien-3-ol 10 ppb, average score 0-4): 2.0 points
- Off-Flavor Intensity ([2]; 1 ppm added, aqueous solution VI, 1,5-octadien-3-ol 10 ppb, average score 0-4): 0.5 points
- Off-Flavor Intensity ([2]; 5 ppm added, aqueous solution VI, 1,5-octadien-3-ol 10 ppb, average score 0-4): 0.1 points
- Off-Flavor Intensity ([2]; 10 ppb added, aqueous solution VI, 1,5-octadien-3-ol 10 ppb, average score 0-4): 1.8 points
- Off-Flavor Intensity ([2]; 10 ppt added, aqueous solution VI, 1,5-octadien-3-ol 10 ppb, average score 0-4): 2.5 points
- Off-Flavor Intensity ([2]; 50 ppb added, aqueous solution VI, 1,5-octadien-3-ol 10 ppb, average score 0-4): 1.5 points
- Off-Flavor Intensity ([2]; 100 ppb added, aqueous solution VI, 1,5-octadien-3-ol 10 ppb, average score 0-4): 1.3 points
- Off-Flavor Intensity ([2]; 100 ppt added, aqueous solution VI, 1,5-octadien-3-ol 10 ppb, average score 0-4): 2.4 points
- Off-Flavor Intensity ([2]; 500 ppb added, aqueous solution VI, 1,5-octadien-3-ol 10 ppb, average score 0-4): 0.9 points
- concentration that masks the off-flavor and does not affect the flavor of the food and/or beverage itself, lower limit [3]: ≥ 10 ppt
- concentration that masks the off-flavor and does not affect the flavor of the food and/or beverage itself, upper limit [3]: ≤ 1 ppm
- Off-Flavor Intensity ([4]; 1 ppb added, 1-octen-3-one 1 ppb, average score 0-4): 2.6 points
- Off-Flavor Intensity ([4]; 1 ppm added, 1-octen-3-one 1 ppb, average score 0-4): 1.5 points
- Off-Flavor Intensity ([4]; 5 ppm added, 1-octen-3-one 1 ppb, average score 0-4): 1.0 points
- Off-Flavor Intensity ([4]; 10 ppb added, 1-octen-3-one 1 ppb, average score 0-4): 2.3 points
- Off-Flavor Intensity ([4]; 10 ppt added, 1-octen-3-one 1 ppb, average score 0-4): 3.5 points
- Off-Flavor Intensity ([4]; 50 ppb added, 1-octen-3-one 1 ppb, average score 0-4): 1.9 points
- Off-Flavor Intensity ([4]; 100 ppb added, 1-octen-3-one 1 ppb, average score 0-4): 1.9 points
- Off-Flavor Intensity ([4]; 100 ppt added, 1-octen-3-one 1 ppb, average score 0-4): 3.3 points
- Off-Flavor Intensity ([4]; 500 ppb added, 1-octen-3-one 1 ppb, average score 0-4): 1.8 points
- Off-Flavor Intensity ([5]; 1 ppb added, (E)-2-octenal 10 ppb, average score 0-4): 2.3 points
- Off-Flavor Intensity ([5]; 1 ppm added, (E)-2-octenal 10 ppb, average score 0-4): 0.6 points
- Off-Flavor Intensity ([5]; 5 ppm added, (E)-2-octenal 10 ppb, average score 0-4): 0.4 points
- Off-Flavor Intensity ([5]; 10 ppb added, (E)-2-octenal 10 ppb, average score 0-4): 1.8 points
- Off-Flavor Intensity ([5]; 10 ppt added, (E)-2-octenal 10 ppb, average score 0-4): 3.1 points
- Off-Flavor Intensity ([5]; 50 ppb added, (E)-2-octenal 10 ppb, average score 0-4): 1.5 points
- Off-Flavor Intensity ([5]; 100 ppb added, (E)-2-octenal 10 ppb, average score 0-4): 1.4 points
- Off-Flavor Intensity ([5]; 100 ppt added, (E)-2-octenal 10 ppb, average score 0-4): 2.8 points
- Off-Flavor Intensity ([5]; 500 ppb added, (E)-2-octenal 10 ppb, average score 0-4): 0.9 points
- Off-Flavor Intensity ([6]; 1 ppb added, 1-octen-3-ol 10 ppb, average score 0-4): 2.6 points
- Off-Flavor Intensity ([6]; 1 ppm added, 1-octen-3-ol 10 ppb, average score 0-4): 1.0 points
- Off-Flavor Intensity ([6]; 5 ppm added, 1-octen-3-ol 10 ppb, average score 0-4): 0.8 points
- Off-Flavor Intensity ([6]; 10 ppb added, 1-octen-3-ol 10 ppb, average score 0-4): 2.3 points
- Off-Flavor Intensity ([6]; 10 ppt added, 1-octen-3-ol 10 ppb, average score 0-4): 3.3 points
- Off-Flavor Intensity ([6]; 50 ppb added, 1-octen-3-ol 10 ppb, average score 0-4): 2.1 points
- Off-Flavor Intensity ([6]; 100 ppb added, 1-octen-3-ol 10 ppb, average score 0-4): 1.9 points
- Off-Flavor Intensity ([6]; 100 ppt added, 1-octen-3-ol 10 ppb, average score 0-4): 3.0 points
- Off-Flavor Intensity ([6]; 500 ppb added, 1-octen-3-ol 10 ppb, average score 0-4): 1.3 points
- Off-Flavor Intensity ([7]; 1 ppb added, (E)-2-nonenal 1 ppb, average score 0-4): 2.6 points
- Off-Flavor Intensity ([7]; 1 ppm added, (E)-2-nonenal 1 ppb, average score 0-4): 1.3 points
- Off-Flavor Intensity ([7]; 5 ppm added, (E)-2-nonenal 1 ppb, average score 0-4): 1.0 points
- Off-Flavor Intensity ([7]; 10 ppb added, (E)-2-nonenal 1 ppb, average score 0-4): 2.3 points
- Off-Flavor Intensity ([7]; 10 ppt added, (E)-2-nonenal 1 ppb, average score 0-4): 3.4 points
- Off-Flavor Intensity ([7]; 50 ppb added, (E)-2-nonenal 1 ppb, average score 0-4): 2.0 points
- Off-Flavor Intensity ([7]; 100 ppb added, (E)-2-nonenal 1 ppb, average score 0-4): 1.9 points
- Off-Flavor Intensity ([7]; 100 ppt added, (E)-2-nonenal 1 ppb, average score 0-4): 3.1 points
- Off-Flavor Intensity ([7]; 500 ppb added, (E)-2-nonenal 1 ppb, average score 0-4): 1.3 points
